What was measured:
eEF2K = molecular target: T1, eEF2K (Homo sapiens, UniProt O00418); experiment: EF2K cell-based assay (P-EF2 AlphaLISA, 2-deoxyglucose stimulated MCF10A cells); conditions: 2.5 mM 2-deoxyglucose 4 h, phosphorylation of EF2 at Thr 56, pIC50 = -log IC50 (M), read-out: eEF2K_C_PThr56 pIC50 (converted)
T1 construct: in the immortalized epithelial breast cell lines, MCF10A; host or cells: MCF10A immortalized breast epithelial cells
T1 sequence (O00418 1-725): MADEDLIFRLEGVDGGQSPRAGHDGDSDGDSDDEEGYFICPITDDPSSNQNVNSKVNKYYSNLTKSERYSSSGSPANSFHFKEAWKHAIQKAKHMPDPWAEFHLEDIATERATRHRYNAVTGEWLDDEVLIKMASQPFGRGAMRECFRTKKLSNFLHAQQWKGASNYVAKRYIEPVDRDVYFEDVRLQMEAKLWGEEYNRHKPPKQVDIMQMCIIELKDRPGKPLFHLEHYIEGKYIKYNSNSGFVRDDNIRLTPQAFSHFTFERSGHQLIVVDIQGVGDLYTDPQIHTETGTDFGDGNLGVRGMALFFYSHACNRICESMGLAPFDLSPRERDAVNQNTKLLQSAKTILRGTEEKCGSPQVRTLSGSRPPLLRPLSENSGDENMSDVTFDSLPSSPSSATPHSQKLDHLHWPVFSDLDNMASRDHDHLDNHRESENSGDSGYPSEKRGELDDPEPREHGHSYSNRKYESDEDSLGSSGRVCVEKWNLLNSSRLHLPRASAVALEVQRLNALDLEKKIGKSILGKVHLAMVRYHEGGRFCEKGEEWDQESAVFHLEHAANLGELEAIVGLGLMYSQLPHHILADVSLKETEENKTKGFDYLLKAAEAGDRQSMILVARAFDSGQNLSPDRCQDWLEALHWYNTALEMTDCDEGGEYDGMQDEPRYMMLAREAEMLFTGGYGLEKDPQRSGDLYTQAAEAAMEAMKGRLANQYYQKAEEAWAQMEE
Method: In this assay, 2.5 mM 2-deoxyglucose was used to deplete intracellular ATP and activate 5′ adenosine monophosphate-activated protein kinase (AMPK) in the immortalized epithelial breast cell lines, MCF10A. MCF 10A cells were purchased from ATCC (CRL-10317).
MCF10A cells are seeded at a density of 1.25×10^5 Cells/ml at 100 μl/well in a 96-well plate and incubated for 24 hours (37° C., 5% CO2). Compound is added for 1 hour, and cell are stimulated with 2.5 mM of 2-deoxy-glucose for 4 hours. Medium is then removed, and cells are lysed in an ice-cold buffer M-PER (Thermo Scientific, 78501), containing protease and phosphatase inhibitors. P-EF2 levels are determined in these lysates using the P-EF2 AlphaLISA described above.

EF2K = molecular target: T2, EF2K (Homo sapiens, UniProt O00418); experiment: Biochemical EF2K lysate-based kinase assay (AlphaLISA p-eEF2 Thr56); conditions: LN-229 cell lysates, 10 mM ATP, pH 6.6; pIC50 = -log IC50 (M); read-out: eEF2K_C_alphalisa pIC50 (converted)
T2 construct: host or cells: LN-229 glioblastoma cell lysate
T2 sequence (O00418 1-725): T1 sequence (O00418 1-725)
Excerpt: LN-229 cells were purchased from ATCC (CRL-2611); these are glioblastoma cells. Cell lysates from LN229 were used in this kinase assay to provide both the kinase and the substrate (EF2). The AlphaLISA p-eEF2 (Thr56) detection assay was developed using a sandwich assay format with two specific antibodies recognizing different epitopes of the target, including one antibody against the phosphorylation site of interest. One anti-eEF2 antibody was conjugated onto AlphaLISA Acceptor beads, while the second antibody was biotinylated and captured by streptavidin coated Donor beads.
Compound was mixed with LN-229 cell lysates in the presence of a kinase buffer (e.g. HEPES) at a pH of 6.6, containing 10 mM Mg^2+ (e.g. magnesium acetate) and 10 mM adenosine-tri-phosphate (ATP) and incubated at room temperature for 15 minutes. The kinase reaction was stopped with excess ethylenediaminetetraacetic acid disodium salt and the biotinylated-anti phospho eEF2 antibody (3 nM) was added for 1 hour. Then the anti-EF2 acceptor beads (10 μg/ml) as well as the streptavidin coated donor beads (20 μg/ml) were added for 1 hour, and the AlphaLISA signal was measured in an Envision instrument once, left overnight, and measured again for the final read.

`CC1c2cccc(c2F)Nc2cc(ccn2)-c2cnc(nc2)NCCCNC(=O)C2(CC2)N2CCN1CC2` (single isomer, unassigned) [Compound 11] showed an IC50 (eEF2K) of 2.88e-07 M and an IC50 (EF2K) of 2.75e-09 M.

`CC1c2cccc(c2F)Nc2cc(ccn2)-c2cnc(nc2)NCCCNC(=O)C2(CC2)N2CCN1CC2` (single isomer, unassigned) [Compound 12] showed an IC50 (eEF2K) greater than 1e-05 M and an IC50 (EF2K) of 1.45e-07 M.

For `CC1c2cccc(c2)Nc2cc(ccn2)-c2cnc(nc2)NCCCNC(=O)C2(CC2)N2CCN1CC2` (single isomer, unassigned) [Compound 22], the IC50 (eEF2K) was 3.63e-07 M and the IC50 (EF2K) was roughly 1.05e-08 M.

Work on `O=C1CN2CCN(CC2)Cc2cccc(c2)Nc2cc(ccn2)-c2cnc(nc2)C2CCCN2CCN1` (single isomer, unassigned) [Compound 138] yielded an IC50 (EF2K) of roughly 1.58e-06 M.

`O=C1CN2CCN(CC2)Cc2cccc(c2)Nc2cc(ccn2)-c2cnc(nc2)C2CCCN2CCN1` (single isomer, unassigned) [Compound 139] was tested, and the IC50 (eEF2K) was greater than 1e-05 M and the IC50 (EF2K) was 7.59e-06 M.

For `O=C1NCCCNc2ncc(cn2)-c2ccnc(c2)Nc2cccc(c2F)CN2CCN(CC2)C12CC2` [Compound 20], the IC50 (eEF2K) was 1.66e-07 M and the IC50 (EF2K) was 3.98e-09 M.

With `O=C1CN2CCN(CC2)Cc2cccc(c2)Nc2cc(ccn2)-c2cnc(nc2)N2CCC2CCN1` (centres unmarked) [Compound 49] the IC50 (eEF2K) was greater than 1e-05 M and the IC50 (EF2K) was 2.51e-05 M.

`O=C1CN2CCN(CC2)Cc2cc(ccc2F)Nc2cc(ccn2)-c2cnc(nc2)N2CC(O)CC2CCN1` (centres unmarked) [Compound 50] was tested, and the IC50 (eEF2K) was 3.55e-07 M and the IC50 (EF2K) was 1.02e-08 M.

With `O=C1CN2CCN(CC2)Cc2cc(ccn2)Nc2cc(ccn2)-c2cnc(nc2)N2CC(O)CC2CCN1` (centres unmarked) [Compound 51] the IC50 (eEF2K) was roughly 1e-05 M.

For `CC1c2cccc(c2F)Nc2cc(ccn2)-c2cnc(nc2)N2CC(O)CC2CCNC(=O)C2(CC2)N2CCN1CC2` (centres unmarked) [Compound 52], the IC50 (eEF2K) was 7.59e-08 M and the IC50 (EF2K) was 5.37e-09 M.

With `O=C1NCCC2CC(O)CN2c2ncc(cn2)-c2ccnc(c2)Nc2cccc(c2)CN2CCN(CC2)C12COC2` (centres unmarked) [Compound 63] the IC50 (eEF2K) was 1.74e-06 M and the IC50 (EF2K) was 1.95e-08 M.

With `O=C1NCCC2CC(O)CN2c2ncc(cn2)-c2ccnc(c2)Nc2cccc(c2)CN2CCN(CC2)C12COC2` (centres unmarked) [Compound 64] the IC50 (eEF2K) was 3.89e-07 M and the IC50 (EF2K) was 5.13e-09 M.

`CN1CCCNc2ccc(cn2)-c2ccnc(c2)Nc2cccc(c2)CN2CCN(CC2)CC1=O` [Compound 69] was tested, and the IC50 (eEF2K) was greater than 3.02e-05 M and the IC50 (EF2K) was 1.41e-05 M.

Work on `N#CC1CC2CCNC(=O)C3(CC3)N3CCN(CC3)Cc3cccc(c3)Nc3cc(ccn3)-c3cnc(nc3)N2C1` (centres unmarked) [Compound 79] yielded an IC50 (eEF2K) of 1.15e-06 M and an IC50 (EF2K) of 9.77e-08 M.

In the case of `O=C1CN2CCN(CC2)Cc2cccc(c2)Nc2cc(ccn2)-c2cnc(nc2)N2CC(F)CC2CCN1` (centres unmarked) [Compound 80], the IC50 (eEF2K) is reported as 6.31e-07 M and the IC50 (EF2K) is reported as 1e-08 M.

Work on `O=C1CN2CCN(CC2)Cc2cccc(c2)Nc2cc(ccn2)-c2cnc(nc2)N2CC=CC2CCN1` (centres unmarked) [Compound 81] yielded an IC50 (eEF2K) of 3.09e-07 M and an IC50 (EF2K) of 4.9e-09 M.

In the case of `[N-]=[N+]=N[C@@H]1C[C@H]2CCNC(=O)CN3CCN(CC3)Cc3cccc(c3)Nc3cc(ccn3)-c3cnc(nc3)N2C1` [Compound 82], the IC50 (eEF2K) is reported as 7.08e-07 M and the IC50 (EF2K) is reported as 1.86e-08 M.

`NC1CC2CCNC(=O)C3(CC3)N3CCN(CC3)Cc3cccc(c3)Nc3cc(ccn3)-c3cnc(nc3)N2C1` (centres unmarked) [Compound 85] was tested, and the IC50 (eEF2K) was 1.1e-06 M and the IC50 (EF2K) was 2.75e-08 M.

Compound `O=C1NCCCNc2ncc(cn2)-c2ccnc(c2)Nc2cccc(c2F)OC2CCN(CC2)C12CC2` [Compound 89] has an IC50 (eEF2K) of 3.24e-07 M and an IC50 (EF2K) of roughly 4.47e-09 M.

For `O=C1CN2CCC(CC2)Oc2cccc(c2F)Nc2cc(ccn2)-c2cnc(nc2)NCCCN1` [Compound 91], the IC50 (eEF2K) was 7.24e-07 M and the IC50 (EF2K) was 1.35e-08 M.

With `O=C1CN2CC(C2)Oc2cccc(c2)Nc2cc(ccn2)-c2cnc(nc2)NCCCN1` [Compound 92] the IC50 (eEF2K) was 1.17e-06 M and the IC50 (EF2K) was 1.26e-07 M.

`O=C1CN2CCC(C2)Oc2cccc(c2)Nc2cc(ccn2)-c2cnc(nc2)NCCCN1` (centres unmarked) [Compound 93] gave an IC50 (eEF2K) of 6.31e-07 M and an IC50 (EF2K) of 7.94e-08 M.

For `O=C1CN2CCCC(CC2)Oc2cccc(c2)Nc2cc(ccn2)-c2cnc(nc2)NCCCN1` (centres unmarked) [Compound 94], the IC50 (eEF2K) was 6.76e-07 M and the IC50 (EF2K) was 6.61e-08 M.

`O=C1NCCCNc2ncc(cn2)-c2ccnc(c2)Nc2cccc(c2)OC2CCN(CC2)C12CC2` [Compound 95] gave an IC50 (eEF2K) of roughly 6.46e-07 M and an IC50 (EF2K) of 6.76e-09 M.

`O=C1NCCC2CC(O)CN2c2ncc(cn2)-c2ccnc(c2)Nc2cccc(c2F)OC2CCN(CC2)C12CC2` (centres unmarked) [Compound 96] gave an IC50 (eEF2K) of 8.13e-08 M and an IC50 (EF2K) of 3.98e-09 M.

With `O=C1NCCC2CC(O)CN2c2ncc(cn2)-c2ccnc(c2)Nc2cccc(c2)OC2CCN(CC2)C12CC2` (centres unmarked) [Compound 97] the IC50 (eEF2K) was 3.31e-07 M and the IC50 (EF2K) was 1.82e-09 M.

In the case of `O=C1CN2CCC(CC2)Oc2cccc(c2)Nc2cc(ccn2)-c2cnc(nc2)N2CC(O)CC2CCN1` (centres unmarked) [Compound 99], the IC50 (eEF2K) is reported as 1.07e-06 M and the IC50 (EF2K) is reported as 3.09e-08 M.

For `CN1c2cccc(c2)Nc2cc(ccn2)-c2cnc(nc2)NCCCNC(=O)C2(CC2)N2CCC1CC2` [Compound 102], the IC50 (eEF2K) was 1.32e-06 M and the IC50 (EF2K) was 8.13e-08 M.

Compound `CN1c2cccc(c2F)Nc2cc(ccn2)-c2cnc(nc2)NCCCNC(=O)C2(CC2)N2CCC1CC2` [Compound 103] has an IC50 (eEF2K) of 1.62e-06 M and an IC50 (EF2K) of 1.91e-07 M.

Compound `CN1c2cccc(c2F)Nc2cc(ccn2)-c2cnc(nc2)N2CC(O)CC2CCNC(=O)C2(CC2)N2CCC1CC2` (centres unmarked) [Compound 105] has an IC50 (eEF2K) of 7.94e-07 M.

For `CC(=O)NCCCCC1C(=O)NCCCNc2ncc(cn2)-c2ccnc(c2)Nc2cccc(c2)CN2CCN1CC2` (centres unmarked) [Compound 109], the IC50 (eEF2K) was greater than 1e-05 M and the IC50 (EF2K) was 3.55e-07 M.

Compound `NCCCCC1C(=O)NCCCNc2ncc(cn2)-c2ccnc(c2)Nc2cccc(c2)CN2CCN1CC2` (centres unmarked) [Compound 113] has an IC50 (eEF2K) of 5.5e-06 M.

`CC(=O)NCCCOCC1CN2CCN1Cc1cccc(c1)Nc1cc(ccn1)-c1cnc(nc1)NCCCNC(=O)C2` (centres unmarked) [Compound 115] showed an IC50 (eEF2K) of 4.37e-07 M and an IC50 (EF2K) of 1.51e-07 M.

For `O=C1CN2CCN(CC2)Cc2cccc(c2)Nc2cc(ccn2)-c2cnc(nc2)NC(CC2CC2)CCN1` (centres unmarked) [Compound 125], the IC50 (eEF2K) was greater than 1e-05 M and the IC50 (EF2K) was 5.75e-06 M.

In the case of `COCCN1CCNC(=O)CN2CCN(CC2)Cc2cccc(c2)Nc2cc(ccn2)-c2cnc(nc2)C1` [Compound 129], the IC50 (eEF2K) is reported as greater than 1e-05 M and the IC50 (EF2K) is reported as 2.69e-05 M.

`CC1NCCNC(=O)CN2CCN(CC2)Cc2cccc(c2)Nc2cc(ccn2)-c2cnc1nc2` (centres unmarked) [Compound 133] gave an IC50 (eEF2K) of roughly 1e-05 M and an IC50 (EF2K) greater than 3.02e-05 M.

For `CC1NCCNC(=O)CN2CCN(CC2)Cc2cccc(c2)Nc2cc(ccn2)-c2cnc1nc2` (centres unmarked) [Compound 134], the IC50 (eEF2K) was greater than 1e-05 M and the IC50 (EF2K) was 1.12e-05 M.

In the case of `O=C1CN2CCN(CC2)Cc2cccc(c2)Nc2cc(ccn2)-c2ccc(nc2)N2CCCC2CCN1` (centres unmarked) [Compound 141], the IC50 (eEF2K) is reported as roughly 3.63e-06 M.

In the case of `O=C1CN2CCN(CC2)Cc2cccc(c2)Nc2cc(ccn2)-c2ccc(nc2)CNCCN1` [Compound 145], the IC50 (eEF2K) is reported as greater than 1e-05 M and the IC50 (EF2K) is reported as roughly 5.5e-06 M.

`CCCN1CCNC(=O)CN2CCN(CC2)Cc2cccc(c2)Nc2cc(ccn2)-c2ccc(nc2)C1` [Compound 147] gave an IC50 (eEF2K) of 1.05e-06 M and an IC50 (EF2K) of 3.98e-07 M.

Compound `CC(=O)NCCCOCC1CN2CCN1Cc1cccc(c1)Nc1cc(ccn1)-c1cnc(nc1)NCCCNC(=O)C2` (centres unmarked) [Compound 149] has an IC50 (eEF2K) greater than 1e-05 M and an IC50 (EF2K) of 6.31e-06 M.
